Measured values reported in US20240041970A1, “TRADITIONAL CHINESE HERBAL COMPOSITION FOR TREATING ALLERGIC CONJUNCTIVITIS AND/OR ALLERGIC RHINITIS” (EYE HOSPITAL, CHINA ACADEMY OF CHINESE MEDICAL SCIENCES, priority 2021, published 2024).

What was measured:
allergic conjunctivitis = assay: Clinical efficacy: ocular symptoms and signs (effective rate); assay type: in vivo, human; settings: 1-week treatment, oral
Excerpt: (§1) From May 10, 2021 to Aug. 23, 2021, 36 patients diagnosed with allergic conjunctivitis complicated and allergic rhinitis were collected from Eye Hospital, China Academy of Chinese Medical Sciences, and they were divided into 2 groups according to a random number table method with 20 cases in the treatment group and 16 cases in the control group.
(§2) The treatment group was orally administered with the water decoction prepared in Example 1 with one dose a day and for twice a day, and the control group was orally administered with 10 mg of cetirizine capsules once a day.
(§3) 2. Evaluation Indexes: • 1) Ocular and nasal symptoms and signs were standardly divided into 4 grades (0: none, 1: mild: 2: moderate: and 3: severe); • 2) Systemic adverse reactions and local adverse reactions in the eyes and nose were recorded.
Eye itching: (1) none; (2) mild: the patient won't notice eye itching when busy at work, but can feel itching when free, or has intermittent eye itching, but it's not severe enough to need to be scratched with hand; (3) moderate: the patient has obvious eye itching, and can still tolerate this symptom, but has the desire to scratch it with hand; and (4) severe: the patient has very obvious and continuous eye itching and stabbing pain, and cannot tolerate these symptoms, and therefore normal life is affected.
Conjunctival congestion: (1) none; (2) mild: congestion takes place in palpebral conjunctiva and fornix in a reticular form; (3) moderate: congestion takes place in palpebral conjunctiva, fornix and bulbar conjunctiva in a reticular form; and (4) severe: congestion takes place in palpebral conjunctiva in a form of red patches, blood vessels are blurred, and obvious congestion takes place in fornix and bulbar conjunctiva;
Conjunctival edema: (1) none; (2) bulbar conjunctival edema can be seen under a slit lamp examination; (3) moderate; bulbar conjunctival edema can be directly seen under natural light; and (4) severe: bulbar conjunctival edema with vesicular protuberances; […]

allergic rhinitis = assay: Clinical efficacy: nasal symptoms and signs (effective rate); assay type: in vivo, human; settings: 1-week treatment, oral
Excerpt: as §1, §2, §3
Rhinocnesmus: (1) none; (2) mild and intermittent; (3) moderate: an ant walking sensation that can be tolerated; and (4) severe: an ant walking sensation that cannot be tolerated.
Sneezing (number of consecutive sneezings): (1) none; (2) mild: 3-9; (3) moderate: 10-14; (4) severe: ≥15.
Nose running (number of nose blowings per day): (1) none; (2) mild: =4; (3) moderate: 5-9; (4) severe ≥10.
The effective rate evaluation method is based on standards established in Clinical Development Guidelines for Pharmaceutical Products for Treatment of Allergic Rhinoconjunctivitis published by the European Medicines Agency, Chinese Expert Consensus on Diagnosis and Treatment of Allergic Conjunctivitis by Chinese Journal of Ophthalmology, 2018, and Guidelines for Diagnosis and Treatment of Allergic Rhinitis (Chinese Journal of Otorhinolaryngology Head and Neck Surgery, 2016. Vol. 51), and is divided into 4 grades (0: none; 1: mild; 2: moderate; and 3: severe), and it is considered effective if two symptoms (or signs) are improved by one grade or more, or same symptom (or sign) is improved by two grades or more. ((2) to (1), (3) to (2) or (4) to (3) represents a one-grade improvement, and (3) to (1) represents a two-grade improvement).

SMILES: O=C(O)COCCN1CCN(C(c2ccccc2)c2ccc(Cl)cc2)CC1 (stereo not drawn) [cetirizine]
- Effective Rate (ocular efficacy) (allergic conjunctivitis): 68.75%
- Effective (ocular efficacy) (allergic conjunctivitis; number of patients): 11
- Ineffective (ocular efficacy) (allergic conjunctivitis; number of patients): 5
- Effective Rate (nasal efficacy) (allergic rhinitis): 75.0%
- Effective (nasal efficacy) (allergic rhinitis; number of patients): 12
- Ineffective (nasal efficacy) (allergic rhinitis; number of patients): 4
